According to patent US12077503B2, “Substituted cyclic amides and their use as herbicides” (FMC CORPORATION, priority 2015, dated 2024):

Tests used:
Assay type in all cases: in vivo
[1] = test system: giant foxtail (Setaria faberi); assay: Test G Post-Emergence Protocol; details: Setaria faberi, post-emergence, 312 h, read-out: Foxtail, Giant damage rating; for pest or weed control at 15.625 g/ha: 15.625 g ai/ha, evaluated after 13 days (100=total damage to plant; 0=no damage to plant); for pest or weed control at 62.5 g/ha: 62.5 g ai/ha
Procedure, shortened: (§1)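 A glasshouse post-emergence test: 8-day-old plants sprayed at 15.625, 62.5 or 250 g/ha, then grown at 24/16 °C day/night with 14 h light and 65% humidity. Damage rated 13 days later, 0–100.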

[2] = test system: ivy-leaved morning glory (Ipomoea hederacea); assay: Test G Post-Emergence Protocol; details: Ipomoea, post-emergence, 312 h, read-out: Morningglory, Ivy-leaved damage rating; for pest or weed control at 15.625 g/ha: 15.625 g ai/ha, evaluated after 13 days (100=total damage to plant; 0=no damage to plant); for pest or weed control at 62.5 g/ha: 62.5 g ai/ha; for pest or weed control at 62.5 g/ha / pest or weed control at 250 g/ha: evaluated after 13 days, 100=total damage to plant, 0=no damage to plant; for pest or weed control at 250 g/ha: 250 g ai/ha
Procedure, shortened: as §1

[3] = test system: barnyardgrass (Echinochloa crus-galli); assay: Test G Post-Emergence Protocol; details: Echinochloa crus-galli, post-emergence, 312 h, read-out: Barnyardgrass damage rating; for pest or weed control at 15.625 g/ha: 15.625 g ai/ha, evaluated after 13 days (100=total damage to plant; 0=no damage to plant); for pest or weed control at 62.5 g/ha: 62.5 g ai/ha; for pest or weed control at 62.5 g/ha / pest or weed control at 250 g/ha: evaluated after 13 days, 100=total damage to plant, 0=no damage to plant; for pest or weed control at 250 g/ha: 250 g ai/ha
Procedure, shortened: as §1

[4] = test system: velvetleaf (Abutilon theophrasti); assay: Test G Post-Emergence Protocol; details: Abutilon theophrasti, post-emergence, 312 h, read-out: Velvetleaf damage rating; for pest or weed control at 15.625 g/ha: 15.625 g ai/ha, evaluated after 13 days (100=total damage to plant; 0=no damage to plant); for pest or weed control at 62.5 g/ha: 62.5 g ai/ha; for pest or weed control at 62.5 g/ha / pest or weed control at 250 g/ha: evaluated after 13 days, 100=total damage to plant, 0=no damage to plant; for pest or weed control at 250 g/ha: 250 g ai/ha
Procedure, shortened: as §1

corn (Zea mays) [5] = assay: Test G Post-Emergence Protocol; details: Zea mays, post-emergence, 312 h, read-out: Corn damage rating; for plant injury at 15.625 g/ha: 15.625 g ai/ha, evaluated after 13 days (100=total damage to plant; 0=no damage to plant); for plant injury at 62.5 g/ha: 62.5 g ai/ha; for plant injury at 62.5 g/ha / plant injury at 250 g/ha: evaluated after 13 days, 100=total damage to plant, 0=no damage to plant; for plant injury at 250 g/ha: 250 g ai/ha
Procedure, shortened: as §1

[6] = test system: redroot pigweed (Amaranthus retroflexus); assay: Test G Post-Emergence Protocol; details: Amaranthus retroflexus, post-emergence, 312 h, read-out: Pigweed, Redroot damage rating; for pest or weed control at 15.625 g/ha: 15.625 g ai/ha, evaluated after 13 days (100=total damage to plant; 0=no damage to plant); for pest or weed control at 62.5 g/ha: 62.5 g ai/ha; for pest or weed control at 62.5 g/ha / pest or weed control at 250 g/ha: evaluated after 13 days, 100=total damage to plant, 0=no damage to plant; for pest or weed control at 250 g/ha: 250 g ai/ha
Procedure, shortened: as §1

[7] = test system: giant foxtail (Setaria faberi); assay: Test G Pre-Emergence Protocol; details: Setaria faberi, pre-emergence, 312 h, evaluated after 13 days; for pest or weed control at 15.625 g/ha: 15.625 g ai/ha; for pest or weed control at 15.625 g/ha / pest or weed control at 250 g/ha: read-out: Foxtail, Giant damage rating (100=total damage to plant; 0=no damage to plant); for pest or weed control at 62.5 g/ha: 62.5 g ai/ha, 100=total damage to plant, 0=no damage to plant, read-out: Foxtail, Giant damage rating; for pest or weed control at 250 g/ha: 250 g ai/ha
Procedure, shortened: (§2)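 Seeds were sown in standard soil and kept one day in a glasshouse (24/16° C day/night, 14 h light, 65% humidity), then sprayed with compound in acetone/water (50:50) containing 0.5% Tween 20 at 15.625, 62.5 or 250 g/ha. Damage was scored after 13 days (0 = none, 100 = total).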

[8] = test system: ivy-leaved morning glory (Ipomoea hederacea); assay: Test G Pre-Emergence Protocol; details: Ipomoea, pre-emergence, 312 h, evaluated after 13 days; for pest or weed control at 15.625 g/ha: 15.625 g ai/ha; for pest or weed control at 15.625 g/ha / pest or weed control at 250 g/ha: read-out: Morningglory, Ivy-leaved damage rating (100=total damage to plant; 0=no damage to plant); for pest or weed control at 62.5 g/ha: 62.5 g ai/ha, 100=total damage to plant, 0=no damage to plant, read-out: Morningglory, Ivy-leaved damage rating; for pest or weed control at 250 g/ha: 250 g ai/ha
Procedure, shortened: as §2

[9] = test system: barnyardgrass (Echinochloa crus-galli); assay: Test G Pre-Emergence Protocol; details: Echinochloa crus-galli, pre-emergence, 312 h, evaluated after 13 days; for pest or weed control at 15.625 g/ha: 15.625 g ai/ha; for pest or weed control at 15.625 g/ha / pest or weed control at 250 g/ha: read-out: Barnyardgrass damage rating (100=total damage to plant; 0=no damage to plant); for pest or weed control at 62.5 g/ha: 62.5 g ai/ha, 100=total damage to plant, 0=no damage to plant, read-out: Barnyardgrass damage rating; for pest or weed control at 250 g/ha: 250 g ai/ha
Procedure, shortened: as §2

[10] = test system: velvetleaf (Abutilon theophrasti); assay: Test G Pre-Emergence Protocol; details: Abutilon theophrasti, pre-emergence, 312 h, evaluated after 13 days; for pest or weed control at 15.625 g/ha: 15.625 g ai/ha; for pest or weed control at 15.625 g/ha / pest or weed control at 250 g/ha: read-out: Velvetleaf damage rating (100=total damage to plant; 0=no damage to plant); for pest or weed control at 62.5 g/ha: 62.5 g ai/ha, 100=total damage to plant, 0=no damage to plant, read-out: Velvetleaf damage rating; for pest or weed control at 250 g/ha: 250 g ai/ha
Procedure, shortened: as §2

corn (Zea mays) [11] = assay: Test G Pre-Emergence Protocol; details: Zea mays, pre-emergence, 312 h, evaluated after 13 days; for plant injury at 15.625 g/ha: 15.625 g ai/ha; for plant injury at 15.625 g/ha / plant injury at 250 g/ha: read-out: Corn damage rating (100=total damage to plant; 0=no damage to plant); for plant injury at 62.5 g/ha: 62.5 g ai/ha, 100=total damage to plant, 0=no damage to plant, read-out: Corn damage rating; for plant injury at 250 g/ha: 250 g ai/ha
Procedure, shortened: as §2

[12] = test system: redroot pigweed (Amaranthus retroflexus); assay: Test G Pre-Emergence Protocol; details: Amaranthus retroflexus, pre-emergence, 312 h, evaluated after 13 days; for pest or weed control at 15.625 g/ha: 15.625 g ai/ha; for pest or weed control at 15.625 g/ha / pest or weed control at 250 g/ha: read-out: Pigweed, Redroot damage rating (100=total damage to plant; 0=no damage to plant); for pest or weed control at 62.5 g/ha: 62.5 g ai/ha, 100=total damage to plant, 0=no damage to plant, read-out: Pigweed, Redroot damage rating; for pest or weed control at 250 g/ha: 250 g ai/ha
Procedure, shortened: as §2

[13] = evaluated after 13 days, 100=total damage to plant, 0=no damage to plant

Compound	pest or weed control at 15.625 g/ha [1] [%]	pest or weed control at 62.5 g/ha [1, 13] [%]	pest or weed control at 15.625 g/ha [2] [%]	pest or weed control at 62.5 g/ha [2] [%]	pest or weed control at 250 g/ha [2] [%]	pest or weed control at 15.625 g/ha [3] [%]	pest or weed control at 62.5 g/ha [3] [%]	pest or weed control at 250 g/ha [3] [%]	pest or weed control at 15.625 g/ha [4] [%]	pest or weed control at 62.5 g/ha [4] [%]	pest or weed control at 250 g/ha [4] [%]	plant injury at 15.625 g/ha (corn (Zea mays) [5]) [%]	plant injury at 62.5 g/ha (corn (Zea mays) [5]) [%]	plant injury at 250 g/ha (corn (Zea mays) [5]) [%]	pest or weed control at 15.625 g/ha [6] [%]	pest or weed control at 62.5 g/ha [6] [%]	pest or weed control at 250 g/ha [6] [%]	pest or weed control at 15.625 g/ha [7] [%]	pest or weed control at 62.5 g/ha [7] [%]	pest or weed control at 250 g/ha [7] [%]	other results
Cc1cc(C)cc([C@H]2CN(C)C(=O)[C@@H]2C(=O)Nc2ccccc2S(C)(=O)=O)c1 (racemic) [Compound 1727]	30	80	0	30	50	20	70	70	0	0	10	0	0	10	0	0	0	50	60	80	pest or weed control at 250 g/ha ([1]; 250 g ai/ha, evaluated after 13 days, 100=total damage to plant, 0=no damage to plant): 80%; pest or weed control at 15.625 g/ha [8]: 0%; pest or weed control at 62.5 g/ha [8]: 0%; pest or weed control at 250 g/ha [8]: 10%; pest or weed control at 15.625 g/ha [9]: 30%; pest or weed control at 62.5 g/ha [9]: 40%; pest or weed control at 250 g/ha [9]: 80%; pest or weed control at 15.625 g/ha [10]: 0%; pest or weed control at 62.5 g/ha [10]: 0%; pest or weed control at 250 g/ha [10]: 0%; plant injury at 15.625 g/ha (corn (Zea mays) [11]): 0%; plant injury at 62.5 g/ha (corn (Zea mays) [11]): 0%; plant injury at 250 g/ha (corn (Zea mays) [11]): 0%; pest or weed control at 15.625 g/ha [12]: 0%; pest or weed control at 62.5 g/ha [12]: 0%; pest or weed control at 250 g/ha [12]: 30%
CN1C[C@H](c2ccc(C(F)(F)F)cc2)[C@@H](C(=O)Nc2cccnc2S(C)(=O)=O)C1=O (racemic) [Compound 1789]	0	0	0	0	0	0	0	0	0	0	20	0	0	10	0	0	20	0	0	0	pest or weed control at 15.625 g/ha [8]: 0%; pest or weed control at 62.5 g/ha [8]: 0%; pest or weed control at 250 g/ha [8]: 0%; pest or weed control at 15.625 g/ha [9]: 0%; pest or weed control at 62.5 g/ha [9]: 0%; pest or weed control at 250 g/ha [9]: 0%; pest or weed control at 15.625 g/ha [10]: 0%; pest or weed control at 62.5 g/ha [10]: 0%; pest or weed control at 250 g/ha [10]: 20%; plant injury at 15.625 g/ha (corn (Zea mays) [11]): 0%; plant injury at 62.5 g/ha (corn (Zea mays) [11]): 0%; plant injury at 250 g/ha (corn (Zea mays) [11]): 10%; pest or weed control at 15.625 g/ha [12]: 0%; pest or weed control at 62.5 g/ha [12]: 0%; pest or weed control at 250 g/ha [12]: 20%
